Measurements from PubChem BioAssay AID1648 (Sanford-Burnham Center for Chemical Genomics, 2009).
Activity calls are given as the source filed them. The rule behind the calls is not given here.

Target: Serine/threonine-protein kinase mTOR (Homo sapiens) (UniProt P42345)
Assay: binders of mTOR FRB domain, biophysical, NMR (AID 1648)
Conditions: NMR binding to FRB domain, chemical shift

Sequence of Serine/threonine-protein kinase mTOR (Homo sapiens) (P42345 2015-2114): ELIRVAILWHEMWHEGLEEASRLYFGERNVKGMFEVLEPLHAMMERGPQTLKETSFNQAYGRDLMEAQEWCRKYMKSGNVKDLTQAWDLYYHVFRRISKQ

Row | SMILES | Kd
1 | O=C1C[C@@H](c2ccc(O)cc2)Oc2cc(O)cc(O)c21 | > 4 mM (inactive)
2 | CC1(C)C(=O)C=C[C@@]2(C)C1=C(O)C(=O)[C@]1(C)C2CC[C@@]2(C)[C@H](c3ccoc3)C[C@H]3O[C@]321 (stereo not given in full) | > 4 mM (inactive)
3 | Cn1c(SCC(N)=O)nnc1-c1cccnc1 | > 4 mM (inactive)
4 | O=C1C2C3CCC(O3)C2C(=O)N1c1ccccc1 (stereo not given) | > 4 mM (inactive)
5 | Nc1[nH]c(=S)ncc1S(=O)(=O)c1ccccc1 | > 4 mM (inactive)
6 | Cc1cc[n+](-c2nc([O-])sc2C=O)cc1 | > 4 mM (inactive)
7 | NC1=NN(c2ccccc2)C(=O)C1 | > 4 mM (inactive)
8 | O=C(CSc1ncn[nH]1)c1ccc2c(c1)OCCO2 | > 4 mM (inactive)
9 | O=C(CCc1ccc(O)cc1)c1c(O)cc(O)cc1O[C@@H]1O[C@H](CO)[C@@H](O)[C@H](O)[C@H]1O | > 4 mM (inactive)
10 | COc1ccc(-c2c(OC)c3c(OC)c4c(cc3oc2=O)OC(C)(C)C=C4)cc1 | > 4 mM (inactive)
11 | CNC(=O)c1c(O)c2ccccc2[nH]c1=O | > 4 mM (inactive)
12 | O=C1O[C@H](C(O)CO)C(O)=C1O (stereo not given in full) | > 4 mM (inactive)
13 | O[C@H]1C=C2CCN3Cc4cc5c(cc4C(C23)[C@@H]1O)OCO5 (stereo not given in full) | > 4 mM (inactive)
14 | Cc1onc(-c2c(F)cccc2Cl)c1C(N)=O | > 4 mM (inactive)
15 | COc1ccc(/C=C2/SC(N)=NC2=O)c(OC)c1 | > 4 mM (inactive)
16 | O=C(Nc1cccnc1)c1c(F)cccc1F | > 4 mM (inactive)
17 | O=C1Cc2ccccc2N1c1ccccc1 | > 4 mM (inactive)
18 | O=S(=O)(N1CCOCC1)n1nnc2ccccc21 | > 4 mM (inactive)
19 | COc1cc([C@H]2Oc3cc([C@H]4Oc5cc(O)cc(O)c5C(=O)[C@@H]4O)ccc3O[C@@H]2CO)ccc1O | > 4 mM (inactive)
20 | CCn1cnc2sc(C(=O)O)c(C)c2c1=O | > 4 mM (inactive)
21 | c1cc2n(c1)CCNC2c1ccncc1 (stereo not given) | > 4 mM (inactive)
22 | O=C(Nc1nnc(-c2ccncc2)o1)c1cccs1 | > 4 mM (inactive)
23 | OC1COCc2nc3ccccc3n2C1 (stereo not given) | > 4 mM (inactive)

Row | SMILES | Kd
24 | Oc1ccc2c(c1)OCO2 | > 4 mM (inactive)
25 | CC1=NCCc2c1[nH]c1cc(O)ccc21 | > 4 mM (inactive)
26 | Cc1ccc(C(=O)N2CCC(C(=O)O)CC2)cc1 | > 4 mM (inactive)
27 | OCc1cccc2c1OCCO2 | > 4 mM (inactive)
28 | O=C(O)CNC(=O)c1ccccc1Cl | > 4 mM (inactive)
29 | O=C(NCc1ccco1)c1nc2ncccn2n1 | > 4 mM (inactive)
30 | CN=C(C)c1c(O)n(C)c(=O)n(C)c1=O | > 4 mM (inactive)
31 | Cc1nc(-c2ccccc2)sc1CN | > 4 mM (inactive)
32 | Cc1cccc(N2C(=O)CCC2=O)n1 | > 4 mM (inactive)
33 | NC(=O)C1(c2ccccc2)CCOCC1 | > 4 mM (inactive)
34 | CNC(=O)CC1Sc2ccccc2NC1=O (stereo not given) | > 4 mM (inactive)
35 | COC(=O)c1ccc(N2CCOCC2)nc1 | > 4 mM (inactive)
36 | O=C(O)CSc1cccc2cccnc12 | > 4 mM (inactive)
37 | Cc1ccc(/C=C/C(=O)O)cc1S(=O)(=O)NCCO | > 4 mM (inactive)
38 | NC(=O)CSc1nc2[nH]ncc2c(=O)[nH]1 | > 4 mM (inactive)
39 | O=c1ccc(=O)n(CN2CCc3ccccc3C2)[nH]1 | > 4 mM (inactive)
40 | O=C(NCCO)c1ccccc1I | > 4 mM (inactive)
41 | CC1(C)NCCN2C(=O)CSC21 (stereo not given) | > 4 mM (inactive)
42 | CCC(=O)n1nc(-c2ccco2)nc1N | > 4 mM (inactive)
43 | CC(=O)OC(C)(C)[C@@H]1Cc2cc3ccc(=O)oc3cc2O1 | > 4 mM (inactive)
44 | C/C=C(/C)C(=O)O[C@@H]1[C@H](OC(C)=O)[C@@]2(CO)C(CC1(C)C)C1=CCC3[C@@]4(C)CC[C@H](O[C@@H]5O[C@H](C(=O)O)[C@@H](O[C@@H]6O[C@H](CO)[C@@H](O)[C@H](O)[C@H]6O)[C@H](O)[C@H]5O[C@@H]5O[C@H](CO)[C@@H](O)[C@H](O)[C@H]5O)[C@](C)(CO)C4CC[C@@]3(C)[C@]1(C)C[C@H]2O (stereo not given in full) | > 4 mM (inactive)
45 | O=c1c2ccccc2ncn1C1CCCCC1 | > 4 mM (inactive)
46 | Cc1noc(-c2ccccc2)c1CO | > 4 mM (inactive)

Row | SMILES | Kd
47 | COc1ccc(-c2cc(=O)c3c(OC)c(OC)c(OC)c(OC)c3o2)cc1 | > 4 mM (inactive)
48 | O=C(O)CSCC(=O)Nc1cccc(O)c1 | > 4 mM (inactive)
49 | CC(=O)O[C@@H]1CC2C(C)(C)C(=O)C=C[C@]2(C)C2CC[C@]3(C)C(=CC(=O)O[C@H]3c3ccoc3)[C@@]21C (stereo not given in full) | > 4 mM (inactive)
50 | Nc1cc(N)nc(SCc2ccccc2)n1 | > 4 mM (inactive)
51 | O=C1CSC(c2ccc3c(c2)OCO3)N1 (stereo not given) | > 4 mM (inactive)
52 | NCc1cn2ccccc2n1 | > 4 mM (inactive)
53 | CCC(=O)NC(=S)Nc1ccc(C(N)=O)cc1 | > 4 mM (inactive)
54 | CN(C)c1nc(N)nc(Cn2ccnc2)n1 | > 4 mM (inactive)
55 | C/C=C(\C)c1nnc(NC(=O)C(C)C)s1 | > 4 mM (inactive)
56 | CC(=O)/C=C\[C@@H]1[C@@]2(C)CCCC(C)(C)C2CC[C@@]1(C)O (stereo not given in full) | > 4 mM (inactive)
57 | CN(C)c1ccc(NC(=O)CC(C(=O)O)N(C)C)cc1 (stereo not given) | > 4 mM (inactive)
58 | COc1ccc(Cl)cc1NC(=O)c1ccco1 | > 4 mM (inactive)
59 | O=C1CSC(=Nc2cccc(C(=O)O)c2)N1 | > 4 mM (inactive)
60 | Cc1cc(C(=O)Nc2ccc3c(c2)OCO3)cs1 | > 4 mM (inactive)
61 | CC(=O)Nc1nnc(-c2ccccn2)o1 | > 4 mM (inactive)
62 | CC1Cc2nc(SCC(N)=O)n(C)c(=O)c2S1 (stereo not given) | > 4 mM (inactive)
63 | CC(C)=CCCC1(C)C=Cc2c(O)c3c(c(CC=C(C)C)c2O1)OC12C(=CC4CC1C(C)(C)OC2(C/C=C(/C)C(=O)O)C4O)C3=O (stereo not given) | > 4 mM (inactive)
64 | N#CCCn1c(=O)oc2ccccc21 | > 4 mM (inactive)
65 | O=c1[nH]c(=S)[nH]c2c1CCC2 | > 4 mM (inactive)
66 | Cc1onc(-c2ccccc2)c1CN | > 4 mM (inactive)
67 | C/C=C/COc1nc2c(c(=O)n(C)c(=O)n2C)n1C | > 4 mM (inactive)
68 | COC1=CC(C)[C@@H]2C[C@H]3OC(=O)C[C@H]4C(C)=C(OC)C(=O)C([C@@]34C)[C@@]2(C)C1=O (stereo not given in full) | > 4 mM (inactive)
69 | CC(=O)Oc1ccc(N2C(=O)C3C4C=CC(O4)C3C2=O)cc1 (stereo not given) | > 4 mM (inactive)

Row | SMILES | Kd
70 | O=C(O)c1sccc1-n1cccc1 | > 4 mM (inactive)
71 | CC(=O)Nc1cc(N2C(=O)C=CC2=O)ccc1Cl | > 4 mM (inactive)
72 | Cn1c(CO)nc2ccccc21 | > 4 mM (inactive)
73 | O=C1CN(c2ccccc2)CC(=O)N1 | > 4 mM (inactive)
74 | O=C(Nc1ccon1)c1cccc(Cl)c1 | > 4 mM (inactive)
75 | COc1ccc(S(N)(=O)=O)cc1 | > 4 mM (inactive)
76 | Cc1ccc(C(=O)Nc2nnc(-c3ccncc3)s2)o1 | > 4 mM (inactive)
77 | CN1CCn2c1nc(N1CCOCC1)nc2=O | > 4 mM (inactive)
78 | O=c1[nH]c2sc3c(c2c2nncn12)CCCC3 | > 4 mM (inactive)
79 | COc1ccc(C2=CC(=O)C=CC2=O)cc1 | > 4 mM (inactive)
80 | CC(=O)Nc1cc(C(N)=O)cc(C(N)=O)c1 | > 4 mM (inactive)
81 | CCOC(=O)c1[nH]c(C)cc1C | > 4 mM (inactive)
82 | COc1ccc2c(c1)=C(c1sc(N)nc1O)C(=O)N=2 | > 4 mM (inactive)
83 | O=C1CSC(=S)N1Cc1cccnc1 | > 4 mM (inactive)
84 | Cc1c(C(=O)Nc2ccccn2)oc2ccccc12 | > 4 mM (inactive)
85 | COc1ccc2c(c1)OCC(Cc1ccc(OC)c(OC)c1)C2=O (stereo not given) | > 4 mM (inactive)
86 | C[C@@H]1CC[C@]2(C(=O)O)CC[C@]3(C)C(=CCC4[C@@]5(C)CC[C@H](O)C(C)(C)C5CC[C@]43C)C2[C@H]1C (stereo not given in full) | > 4 mM (inactive)
87 | CNC(=O)Nc1cccc(C(F)(F)F)c1 | > 4 mM (inactive)
88 | CC(=O)Nc1ccc(C(=O)NC2=NCCS2)cc1 | > 4 mM (inactive)
89 | NC1=NC(=O)C(Cc2cccc([N+](=O)[O-])c2)S1 (stereo not given) | > 4 mM (inactive)
90 | Cc1cc(N)n(-c2ccccc2)n1 | > 4 mM (inactive)
91 | CC(O)C(=O)N/N=C/c1ccccc1 (stereo not given) | > 4 mM (inactive)
92 | C(=N\c1nccs1)/c1cccnc1 | > 4 mM (inactive)

Row | SMILES | Kd
93 | Cc1nc(-c2cccc(N)c2)cs1 | > 4 mM (inactive)
94 | Cn1cnc2c(cnn2-c2ccccc2)c1=O | > 4 mM (inactive)
95 | COC(=O)[C@@H]1OC(=O)C2OC23[C@@]1(C)CCC1[C@@]2(C)CCC(=O)C(C)(C)C2C[C@@H](OC(C)=O)[C@]13C (stereo not given in full) | > 4 mM (inactive)
96 | Fc1ccc(Br)cc1/C=N/n1cnnc1 | > 4 mM (inactive)
97 | O=C(Nc1ccccc1)c1cnc2n(c1=O)CCS2 | > 4 mM (inactive)
98 | O=S(=O)(c1cccc2cccnc12)N1CCOCC1 | > 4 mM (inactive)
99 | Cc1c(C(=O)N2CCOCC2)oc2c1C(=O)CC(C)(C)C2 | > 4 mM (inactive)
100 | OC1CCN(C(=S)NC2CC2)CC1 | > 4 mM (inactive)
101 | COc1ccc(-c2ccc(SCC(N)=O)nn2)cc1 | > 4 mM (inactive)
102 | COc1cc2cc[n+]3cc4c(OC)c(OC)ccc4cc3c2cc1OC | > 4 mM (inactive)
103 | O=C(O)c1ccc(N2CCOCC2)nc1 | > 4 mM (inactive)
104 | Cc1cc(SCC(=O)c2ccccc2)nc(=O)[nH]1 | > 4 mM (inactive)
105 | CN1CCc2c(sc(N)c2C#N)C1 | > 4 mM (inactive)
106 | O=C(NC(=O)N1CCOCC1)c1ccccc1 | > 4 mM (inactive)
107 | COc1ccccc1NC(=O)c1ccc(Br)o1 | > 4 mM (inactive)
108 | CCSc1nc(=S)n(CC)c(C)c1C(C)=O | > 4 mM (inactive)
109 | CC12CCC3C(CC3(C)C)C(C)(CCC1=O)O2 (stereo not given) | > 4 mM (inactive)
110 | N#Cc1ccccc1CSc1ccccn1 | > 4 mM (inactive)
111 | Nc1ccccc1C(=O)CC(N)C(=O)O (stereo not given) | > 4 mM (inactive)
112 | O=C(Nc1ccncc1)c1c(F)cccc1F | > 4 mM (inactive)
113 | Cc1c(N=CN(C)C)c(=O)n(-c2ccccc2)n1C | > 4 mM (inactive)
114 | Oc1ccc([C@H]2Oc3cc(O)cc(O)c3C[C@H]2O)cc1 | > 4 mM (inactive)
115 | O=C(COc1ccccc1)N1CCc2ccccc2C1 | > 4 mM (inactive)
